The values that follow come from article PMC12274739, “Differential substrate degradation by super-degron: EGFP in wild-type mouse cells, PD-1 requires CRBN humanization” (iScience, 2025).

One data set has as its system mouse PD-1-SD. Description: Linker evaluation of mouse PD-1-SD in Jurkat cells. The format is cell-based, human. As to conditions: PD-1-SD with a linker, 1 µM iberdomide for 1 day. The text has this:
We used human Jurkat cells as it was difficult to accurately assess exogenous PD-1 expression, as EL4 cells originally expressed mouse PD-1. […] Therefore, the simplest “no linker” construct was adopted for in vivo protein knockdown in mice. Considering that fluorescent proteins affect the degradation efficiency of PD-1,[31] we decided to knock in without a fluorescent protein as a marker. SD was inserted downstream of the endogenous Pdcd1 gene (the gene encoding PD-1) in Crbn^I391V/I391V mice using genome editing (Figures 6A and S5), and double homozygous (Pdcd1^SD/SD/Crbn^I391V/I391V) mice were produced by intercrossing.
Figure S4 Evaluation of linker sequences between PD-1 and super degron tag A Amino acid sequences of various linkers between PD-1 and super degron (SD) tag. Sequences […]
were measured by flow cytometry, and the geometric means of fluorescence intensities (MFI) were calculated. The dots indicate the results of the experiment for each of the three samples.
(1 picture or pasted object on this page, not shown here)

Another data set deals with SD-EGFP (Aequorea victoria, UniProt P42212, F64L/H231L/S65T). As to conditions: rat ESCs, stable.
The subject of the next data set is SD-tagged EGFP. As to the kind of experiment: Degradation of SD-tagged EGFP in Crbn−/− (CRBN-KO) mESCs. In kind it is cell-based, mouse. The settings on record: IBR up to 1 μM, 24 h.
On the set-up of data set [1]: method as in PMID 31125896. The settings on record: BALB/c mice, oral; cited from earlier work.
For the next data set, the system named is EGFP-SD. As to the kind of experiment: Degradation of stably expressed EGFP-SD in rat ESCs.

Turning to `O=C1CC[C@H](N2Cc3c(OCc4ccc(CN5CCOCC5)cc4)cccc3C2=O)C(=O)N1` [IBR, iberdomide], in the data set with mouse PD-1-SD, the PD-1 expression entry was “significantly reduced”. Moreover, the “Bottom, SD-EGFP” value on SD-EGFP came to 0.01454. For the same compound, the “bottom vs top, SD-EGFP” value on SD-EGFP (IBR up to 1 μM) was determined as 0.057. Further, at SD-EGFP (read-out: DC50, SD-EGFP), the DC50 stood at 271 pM. The “degradation of SD-tagged EGFP” value in the data set on SD-tagged EGFP is given as “did not occur”. In addition, in data set [1], the “half-life (T1/2)” value was 54 min and the “time of serum concentration peak” value is reported as 0.14 h. Moreover, the DC50 in the data set on EGFP-SD (read-out: DC50, EGFP-SD, stable) came out at 140 pM. Besides, the “Bottom, EGFP-SD” value in the data set on EGFP-SD (stable) turned out to be 0.0497. In the data set with EGFP-SD (stable, IBR up to 1 μM), the “bottom vs top, EGFP-SD” value is reported as 0.083.
